Legend:
Format in all cases: in vivo, Sprague-Dawley rats
[1] = system: trigeminal nucleus caudalis wide dynamic range (WDR) neurons; test: Electrical stimulation-induced responses of trigeminal nucleus caudalis WDR neurons, single unit extracellular recording; conditions: rat
Procedure: Male Sprague-Dawley rats (Charles River Laboratories) were anesthetized with isoflurane and used in the following experiments. In the anesthetized rats, single unit, extracellular recordings were performed in trigeminal nucleus caudalis while stimulating the ipsilateral facial skin with constant-current bipolar electrical stimulation. Epoxylate-insulated, tungsten microelectrodes (10 MOhm) were used under stereotaxic coordinate control.
Shown are responses (action potentials per 30 stimuli) to repeated stimulation of a rat's face before oxytocin administration (pre-oxytocin). After administration with oxytocin at approximately 0.1 IU, responses were recorded every five minutes for 65 minutes. A second administration of oxytocin at the same dosage was administered at approximately 70 minutes after the first dose. The approximate site of the administration of the electrical stimulation is indicated by the black spot on a map of the rat's face (FIG. 3B).

[2] = system: pain sensing nerve cells in the trigeminal ganglion; test: Nerve impulses of single pain sensing nerve cells in the trigeminal ganglion in response to noxious laser pulses to the face; conditions: rat, 10 nmoles applied to the nose
Procedure: Sprague-Dawley rats (Charles River Laboratories) were anesthetized with isofluorane and a platinum electrode was inserted transcranially into the trigeminal ganglion. Nerve impulses (action potential) were recorded from single pain sensing nerve cells in the trigeminal ganglion in response to application of noxious laser pulses to the face of the rats. After recording responses to several identical laser pulses, 10 nmoles of oxytocin was applied to the nose of the rats. Thereafter, identical laser pulses were once again applied and recorded.

[3] = system: trigeminal nucleus caudalis wide dynamic range (WDR) neurons; test: Long-pulse laser-induced responses of trigeminal nucleus caudalis WDR neurons; conditions: rat, intranasal 0.025 ml of 0.05 mg/ml
Procedure: Male Sprague-Dawley rats (Charles River Laboratories) were anesthetized with isoflurane and used in the following experiments. In the anesthetized rats, single unit, extracellular recordings were performed in trigeminal nucleus caudalis while stimulating the ipsilateral facial skin with diode laser or constant-current bipolar electrical stimulation. Epoxylate-insulated, tungsten microelectrodes (10 MOhm) were used under stereotaxic coordinate control. […] Shown are responses (action potentials per second) to an 8 second-duration, 425 mA intensity laser stimulus to the site indicated by the black spot on a map of the rat's face (FIG. 4E).

[4] = system: second-order neurons in the trigeminal nucleus caudalis; test: Electrical stimulus-induced windup of trigeminal nucleus caudalis neurons; conditions: rat, intranasal 0.025 ml of 0.05 mg/ml
Source text: Male Sprague-Dawley rats (Charles River Laboratories) were anesthetized with isoflurane and used in the following experiments. […] Needle electrodes were inserted subcutaneously at the site indicated in FIG. 5A by the black spot on the rat's head, and the skin was stimulated at 0.66 Hz, 2 msec duration, 3× C-fiber threshold for >25 times.

[5] = Withdrawal latencies after noxious laser thermal stimulation of ears or hindpaws after intranasal administration; conditions: rat, intranasal 10 nmoles/kg, tested from five minutes after final application
Source text: One way to test activity of an analgesic agent in a rat model is by treatment-induced changes in latencies (times) of withdrawal in response to noxious heating of the skin, typically using an ear, the face or a hindpaw. Thus, application of coherent or non-coherent (non-laser) radiant heat to the ear, the face or hindpaw will elicit rapid withdrawal movements. […] Transmucosal or transdermal administration of analgesic agents to the trigeminal nerve to reduce trigeminal nerve-associated pain can be tested for regional and/or systemic analgesia. The rostral external part of a rat's ear is innervated by a branch of the mandibular nerve, itself a branch of the trigeminal nerve, thus after treatment an increase in latency to withdrawal time would indicate regional analgesia. […]
Sprague-Dawley rats (Charles River Laboratories) were lightly anesthetized with urethane and placed with minimal restraint on a heating pad to maintain their body temperature at 37° C. […] Baseline withdrawal latencies were measured by delivering 4 separate stimuli with a resting period of approximately 15 minutes between each stimulus. […] As described above, testing sessions were videotaped and analyzed.

[6] = intranasal approximately 0.1 IU, first dose

## CC[C@H](C)[C@@H]1NC(=O)[C@H](Cc2ccc(O)cc2)NC(=O)[C@@H](N)CSSC[C@@H](C(=O)N2CCC[C@H]2C(=O)N[C@@H](CC(C)C)C(=O)NCC(N)=O)NC(=O)[C@H](CC(N)=O)NC(=O)[C@H](CCC(N)=O)NC1=O [Oxytocin, Cys-Tyr-Ile-Gln-Asn-Cys-Pro-Leu-Gly]
[1]; intranasal approximately 0.1 IU, electrical stimulation of facial skin
  responses (action potentials per 30 stimuli) after first administration (FIG. 3A): significant reduction in responses
[1]; [6]
  time after first administration at which significant reduction in responses began: 10 min
  time post treatment until which reduction continued, when responses began to increase: 50 min
[1]; second dose approximately 0.1 IU at approximately 70 minutes after the first
  time to significant reduction in responses after second treatment: ≤ 10 min
[2]
  neuronal response (average nerve impulses per laser pulse) post- vs pre-treatment (FIG. 2): significantly (p<0.05) reduced

## C[C@@H](O)[C@@H]1NC(=O)[C@H](CCCCN)NC(=O)[C@@H](Cc2c[nH]c3ccccc23)NC(=O)[C@H](Cc2ccccc2)NC(=O)[C@@H](NC(=O)[C@H](N)Cc2ccccc2)CSSC[C@@H](C(=O)N[C@H](CO)[C@@H](C)O)NC1=O [octreotide]
[3]
  response 25 minutes post-treatment: recovered
[3]; 8 second 425 mA laser stimulus to face
  response five minutes post-treatment: no detectable reduction in response
[3]; 8 second 425 mA laser stimulus, baseline 42 spikes
  response at 10 minutes post-treatment: 5 spikes
[3]; versus pre-treatment baseline
  reduction of response at 10 minutes post-treatment: 88%
[4]; 0.66 Hz, 2 msec, 3x C-fiber threshold, 506 before treatment
  total number of action potentials during the stimulation period, 10 minutes after administration: 408
[4]; versus before treatment
  reduction of total number of action potentials, 10 minutes after administration: 19.4%

## Tyr-Gly-Gly-Phe-Met [met-enkephalin]
[5]; laser stimulation of ears
  analgesic effect, ear withdrawal latency (FIG. 1A): achieved a regional analgesic effect in the head region
[5]; laser stimulation of hindpaws
  systemic analgesic effect, hindpaw withdrawal latency (FIG. 1B): without a systemic analgesic effect at the hindpaw
